Here are results for three compounds from publication PMC12768458 (European journal of medicinal chemistry, 2025).

For data set [1], the system named is CXCL1 mRNA expression. Particulars: LPS-induced TSECs, prior work ref 27; cited from earlier work.
For data set [2], the system named is colony forming megakaryocyte. Particulars: CFU-Mk ref 14; cited from earlier work.
In data set [3] the target is BRD3-D2 (Homo sapiens, UniProt Q15059). As to the kind of experiment: differential scanning fluorimetry. Type of data set: binding. Particulars: DSF. (DSF heats the sample and reads unfolding from a dye or from intrinsic fluorescence.)
Data set [4] deals with BRD2-D2 (Homo sapiens, UniProt P25440). Put plainly: differential scanning fluorimetry. In kind it is binding. Particulars: DSF.
In data set [5] the test system is BET bromodomains. As to the kind of experiment: differential scanning fluorimetry. In kind it is binding. The note with it: DSF, majority of BET bromodomains.
Data set [6] addresses NLuc-BRD4-D1 (Homo sapiens, UniProt O60885). As to the kind of experiment: live-cell NanoBRET competition assay in HEK293T. Particulars: 1.25 μM, 2 h at 37 °C. Type of data set: cell-based. (In general: Bioluminescence resonance energy transfer reports proximity on the nanometre scale.)
Data set [7] concerns CCL2 mRNA expression. The note with it: LPS-induced TSECs, prior work ref 27; cited from earlier work.

Bounds are passed on as bounds.

Chain of BRD3-D2 (Q15059 306-415 limits assumed): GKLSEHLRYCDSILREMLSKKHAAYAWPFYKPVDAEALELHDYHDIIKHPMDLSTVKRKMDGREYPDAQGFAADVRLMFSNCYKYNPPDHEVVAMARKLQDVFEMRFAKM
Chain of BRD2-D2 (P25440 344-453 limits assumed): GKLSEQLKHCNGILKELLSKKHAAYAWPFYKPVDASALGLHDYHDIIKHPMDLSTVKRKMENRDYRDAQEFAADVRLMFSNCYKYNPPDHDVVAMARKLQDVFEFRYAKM

With `CC(=O)Nc1c(F)cc(C(=O)N[C@H]2CC[C@H](O)CC2)cc1O[C@@H](C)c1ccccc1` [iBET-BD2], the “CXCL1 expression, in words” value in data set [1] is listed as “does not significantly reduce the expression of CXCL1”.

In the case of `CCNC(=O)c1cc2c(-c3cc(C(C)(C)O)ccc3Oc3c(C)cc(F)cc3C)cn(C)c(=O)c2[nH]1` [ABBV-744], in data set [2], the “less toxic compared to ABBV-075” value is on record as 18 fold.

Turning to `COc1cc2c(cc1-c1c(C)noc1C)ncc1[nH]c(=O)n([C@H](C)c3ccccn3)c12` [IBET-151], the “stabilization in melting temperature” value in data set [3] is 3.96 ±0.09 °C; in data set [4], 3.70 ±0.12 °C; in data set [5], over 6 °C. The “% inhibition of BRD4-D1” value in data set [6] was 85 ±6%. Also, the “CXCL1 expression, in words” value in data set [1] is “significant efficacy in reducing the downstream expression of CXCL1 and CCL2”. The “CCL2 expression, in words” value in data set [7] is reported as “decrease in CCL2 mRNA levels comparable to control levels”.
